Source: PubChem BioAssay AID179 (DTP/NCI, 2004)
pEC50, pIC50: −log10 of the molar value. Where “and” joins values, the source holds several entries; their conditions need not be identical. Equal entries are not always repeated. Calls of active or inactive are those of the source.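 Rule for the calls: active = compounds giving half or more protection of infected cells from virus-caused growth loss, again on retest; inactive = the rest.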 Where a SMILES comes first, the peptide text is derived from it. The star is where a group is joined. Cbz = O=C(OCc1ccccc1)*

Tested on: CEM cells HIV-1 protection, formazan growth assay
Assay: NCI AIDS Antiviral Assay
Conditions: for pIC50: measured here: growth of uninfected CEM cells
Procedure, shortened: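 Screen of anti-HIV-1 activity in human CEM cells using a formazan-based growth measurement at five drug concentrations. Hits with 50% or greater protection were repeated, and confirmation required reproducible complete protection.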

Compound | pEC50 | pIC50 | outcome
CC1=CC(C)=Nc2ccc(C)cc2N1 | < 3.70 | 3.71 | –
COc1cc(N=Nc2c(S(=O)(=O)O)cc3cc(NC(=O)Nc4ccc5c(O)c(N=Nc6ccc7cc(S(=O)(=O)O)ccc7c6)c(S(=O)(=O)O)cc5c4)ccc3c2O)c(C)cc1N | – | – | active
COc1ccc(C(=O)/C=C/c2ccc(OCC(=N)N)cc2)cc1OC | – | – | inactive
COc1ccc(Cc2nnc3nc(OC)c(-c4ccc(OC)cc4)n3n2)cc1 | < 4.30 | < 4.30 | –
CCCCC#COP(=O)(OCC)OCC | < 3.60 | < 3.60 | –
CC(C)C(NC(=O)C(N)CCCCN)C(=O)NC(CCCCN)C(=O)NCC(=O)NC(C(=O)O)C(C)O (stereo not drawn) (H-KVKGT-OH; configuration not given here) | – | – | inactive
CCn1cc(C(=O)O)c(=O)c2cc(F)c(N3CCNCC3)nc21 | – | – | inactive
C=C1C2CCC3(CCC4C5(C)CCCC4(CN(C(C)=O)C5)C3C2)C1O (stereo not drawn) | – | – | inactive
Cc1cccc(NC(=S)Nc2cccc(C)n2)n1 | < 3.70 | < 3.70 | –
Cc1sccc1C(=S)Nc1ccc(Cl)c(/C=N/OC(C)(C)C)c1 | 4.85 | 4.83 | –
Cc1coc(NS(=O)(=O)c2ccc(N=Nc3c(N)n(C)c(=O)n(C)c3=O)cc2)c1C | – | – | inactive
COc1cc2c3c(c1)CCCN3CCC2 | < 3.70 | 4.88 | –
COc1cc(C(=O)O[C@H]2CCC3CCC2N3C)cc(OC)c1OC (stereo partly drawn) | < 3.70 | < 3.70 | –
COc1ccc2c(c1)C(c1ccc3ccccc3c1)OC2=O (stereo not drawn) | < 4.33 | 5.13 | –
COc1ccc(C2=NN(C(C)=O)c3nc4ccccc4nc3O2)cc1 | – | – | inactive
c1ccc(-c2cc(Nc3ccc4c(c3)OCO4)c3cc(C4CCCCC4)ccc3n2)cc1 | – | – | inactive
N#Cc1ccc(/C=C2\Cc3ccccc3C2=O)cc1 | < 3.70 | < 3.70 | –
COC(=O)c1cc(S(=O)(=O)NC2=NCC(C)NN2)c(S)cc1Cl (stereo not drawn) | < 3.70 | 4.77 | –
Cc1ccc(S(=O)OCc2c(C)c(C)c(COS(=O)c3ccc(C)cc3)c(C)c2C)cc1 (stereo not drawn) | – | – | inactive
CC1=NC(C)(C)[N+]([O-])=C1 | – | – | inactive
N#Cc1[nH]c(=O)n(-c2ccccc2)c1N | < 3.70 | < 3.70 | –
COc1ccc(OC)c(NS(=O)(=O)c2ccc3nc(C)n(NS(=O)(=O)c4cc(OC)ccc4OC)c(=O)c3c2)c1 | < 3.70 | 4.36 | –

Compound | pEC50 | pIC50 | outcome
Cc1nnc(N2C(=O)C(=Cc3ccc(Cl)cc3)N=C2c2ccc(Cl)cc2)nc1/C=C\c1ccc(N(C)C)cc1 | 4.32 | 3.96 | –
CCSC1=N/C(=C\c2ccco2)C(Cl)=N1 | < 4.00 | < 4.00 | –
Cn1c(=O)c2c(ncn2CC(=O)N/N=C2\SCC(=O)N2Cc2ccccc2)n(C)c1=O | < 4.13 | < 4.13 | –
Cc1ccc2nc(NS(=O)(=O)c3cc(C)c(Cl)cc3S)[nH]c2c1 | < 3.70 | < 3.70 | –
COc1ccc(N2C(=O)c3cccnc3S2(=O)=O)cc1 | < 3.70 | < 3.70 | –
C/C=C1\C=[N+]([O-])C2CC1C(C(=O)OC)C13C[C@@H](OC)OC21Nc1ccccc13 (stereo partly drawn) | – | – | inactive
Cc1nc2ccccc2c2c(N)cccc12 | < 3.70 | < 3.70 | –
COc1cc([N+](=O)[O-])ccc1C(=O)Nc1c2ccccc2nc2ccccc12 | < 3.70 | 6.32 | –
CC(=O)N1CCN(C23OC4(N5CCN(C(C)=O)CC5)C5C6CC(C7C6C4C72)C53)CC1 (stereo not drawn) | < 3.70 | < 3.70 | –
Cc1ccc2c(=O)c3c(O)c4c(cc3n(C)c2c1)OC(C)(C)C=C4 | < 3.70 | < 3.70 | –
CCOC(=O)C1(C(=O)OCC)COC(C)(C)OC1 | < 3.70 | < 3.70 | –
O=c1ccc2c([N+](=O)[O-])cc([N+](=O)[O-])c(O)c2[nH]1 | – | – | inactive
N/C(=N\NS(=O)(=O)c1ccccc1)C(F)(F)F | < 3.70 | 3.97 | –
On1c(-c2ccccc2)c(-c2c(-c3ccccc3)n(O)c3ccccc23)c2ccccc21 | < 3.50 | 3.88 | –
S=c1ncnc2cc3[nH][nH]cc3cc12 | < 4.17 | 4.31 | –
O=Nc1ccc(Cl)cc1 | – | – | inactive
Cn1c(=O)c2[nH]c(=O)c(C(CO)C(=O)c3ccccc3)nc2n(C)c1=O (stereo not drawn) | < 3.70 | 5.02 | –
c1ccc([P+](c2ccccc2)(c2ccccc2)C2c3ccccc3-c3ccccc32)cc1 | < 3.70 | 4.97 | –
COc1ccc(/C=C/C(=O)Oc2cc(O)cc(O)c2)cc1 | < 3.70 | 5.34 | –
CCOC(=O)CC(NC(=O)C(CC(=O)OC)NC(=O)C(CC(=O)OC)NC(=O)C(CC(=O)OC)NC(=O)C(CC(=O)OC)NC(=O)C(CC(=O)OC)NC(=O)C(CC(=O)OC)NC(=O)C(CC(=O)OC)NC(=O)OCc1ccccc1)C(=O)OCC (stereo not drawn) (Cbz-D(OMe)D(OMe)D(OMe)D(OMe)D(OMe)D(OMe)D(OMe)D(OEt)-OEt; configuration not given here) | < 4.00 | < 4.00 | –
O=C(O)[C@H](NS(=O)(=O)c1ccc(F)cc1)c1ccccc1 | – | – | inactive
COc1ccc2c(c1)C1(C=N2)CCN(C(C)=O)CC1 | < 3.86 | < 3.86 | –

Compound | pEC50 | pIC50 | outcome
O=C(O)CN(c1ccc(F)cc1)S(=O)(=O)c1ccccc1 | – | – | inactive
CN(C)CC1CCC/C(=C\c2ccc(OC(=O)/C=C/c3ccc(Cl)c(Cl)c3)cc2)C1=O (stereo not drawn) | < 4.00 | 5.84 | –
C=C=C(CC(CC=C(C)C)(C(C)=O)C(=O)OC(C)(C)C)S(=O)(=O)c1ccccc1 (stereo not drawn) | < 4.49 | 5.21 | –
Cc1c(C(N)=C(C#N)C#N)c(=N)oc2ccccc12 | < 3.70 | 4.44 | –
O=C1C2C3CCC(O3)C2C(=O)N1N1C(=O)C2C3CCC(O3)C2C1=O (stereo not drawn) | < 3.70 | 4.36 | –
N.N.N.N.N.[Cl-].[Co+3].c1ccc(-c2nn[n-]n2)cc1 | < 3.16 | < 3.16 | –
CSc1ncc2c(C#N)c3n(C)c4ccccc4n3c(=O)c2n1 | < 4.00 | < 4.00 | –
CC(C)=CCC/C(C)=C\CCC1(C)OC(=O)C2CC21 (stereo not drawn) | < 3.70 | 4.09 and 4.44 | –
Clc1ccc(CNCCCNCc2ccc(Cl)cc2Cl)c(Cl)c1 | < 3.70 | 4.65 | –
CCCCC1c2c([nH]c3ccccc23)C2C(=O)N(c3ccc(OC)cc3)C(=O)C2C1CCC (stereo not drawn) | < 3.70 | 5.45 | –
COc1cc(C(=O)C/C(CCC(=O)Nc2ccc(Cl)cc2C)=N/NC(=O)C(N)=O)ccc1O | – | – | inactive
Nc1c(C(=O)OCc2ccccc2)[nH]c(=O)[nH]c1=O | < 3.70 | < 3.70 | –
CN(C)Cc1cc(N=Nc2ccc(Cl)cc2)ccc1OC(=O)c1ccccc1 | < 3.70 | 4.84 | –
CC(CCC(=O)O)(CCC(=O)O)[N+](=O)[O-] | < 2.94 | < 2.94 | –
NC1(CCCCCCCCCCC(=O)O)CNCCNCCNCCNC1 | < 3.36 | 5.46 | –
Cc1cn(COCCSc2ccccc2)c(=O)[nH]c1=O | < 3.87 | 4.08 | –
CC1C(c2ccc3c(c2)OCO3)c2cc3c(cc2OC1N1CCCC1)OCO3 (stereo not drawn) | < 4.00 | 4.32 | –
COc1ccc(-n2c(N)c(C#N)c(C#N)c2-c2cccc([N+](=O)[O-])c2)cc1 | < 3.70 | 3.73 | –
CC1(CO)OC(n2cnc3c(N)ncnc32)C(O)C1O (stereo not drawn) | < 3.05 | < 3.05 | –
CC1(C)CC(=O)C(C(=O)C(=O)NC2=C(Cl)C(=O)c3ccccc3C2=O)C(=O)C1 | < 4.75 | – | –
CC12CC(=O)NN=C1c1ccccc1C2 (stereo not drawn) | – | – | inactive
Nc1nnc(N)n1NC(=O)C(=O)Nc1ccc([N+](=O)[O-])cc1 | < 3.82 | < 3.82 | –

Compound | pEC50 | pIC50 | outcome
CCN(CCCl)c1cc(CN(C)C)cc(NC(=O)c2ccc(C(=O)Nc3cc(CN(C)C)cc(N(CC)CCCl)c3)cc2)c1 | < 5.70 | 9.20 | –
CCC12C=CCN3CCC4(c5cc(C6(C(=O)OC)CCCCCc7c6[nH]c6ccccc76)c(OC)cc5N(C)C4C(O)(C(=O)OC)C1OC(C)=O)C32 (stereo not drawn) | < 4.60 | 5.36 | –
NNc1nnc(CCCCCCCCc2nnc(NN)n2N)n1N | < 3.70 | 4.43 | –
CCNC(=S)N/N=C/c1ccccn1 | < 3.70 | 6.07 | –
CCCC[P+](CCCC)(CCCC)C(C(=O)OC)C(C(=O)OC)=C1SC(C(=O)OC)=C(C(=O)OC)S1 (stereo not drawn) | < 3.70 | < 3.70 | –
O=C1CC(C2(O)C(=O)Nc3ccc([N+](=O)[O-])cc32)c2ccccc21 (stereo not drawn) | < 4.26 | < 4.26 | –
COc1cc2c3c(c1)[nH]c(=S)n3C(=O)CCS2 | < 3.70 | < 4.00 | –
COc1ccc(N2C(=O)C3c4[nH]c5ccccc5c4C4C(C)CCCC4C3C2=O)cc1 (stereo not drawn) | < 3.70 | 5.09 | –
[Ni+2].[O-]/C(=N\N=C/c1ccccc1F)c1ccncc1.[O-]/C(=N\N=C\c1ccccc1F)c1ccncc1 | < 4.00 | < 4.00 | –
CCN=C1C=C/C(=C(/c2ccc(NCC)c(C)c2)c2cc(O)c(S(=O)(=O)O)cc2S(=O)(=O)O)C=C1C | – | – | inactive
C/C(C=O)=C\c1ccc(N(C)C)cc1 | < 4.42 | < 4.42 | –
O=C(Cc1nc2ccccc2o1)C(=O)Nc1cccc(C(F)(F)F)c1 | – | – | inactive
Cc1nn(-c2ccccc2)c(=O)n2c1nc1ccccc12 | < 4.03 | 4.23 | –
COc1ccc(C(=O)NC(=S)Nc2ccccc2)cc1 | < 4.46 | < 4.46 | –
Cc1oc(C)c2c1C(=O)c1ccccc1C2=O | < 3.70 | 3.91 | –
C#CCOCn1cnc2c(=S)nc[nH]c21 | < 5.04 | < 5.04 | –
CC12CCC3c4cc(Br)c(O)c(Br)c4CCC3C1CCC2O (stereo not drawn) | < 3.70 | 5.17 | –
CC(C)N(CN1C(=O)N/C(=C/c2cccc(/C=C3/NC(=O)N(CN(C(C)C)C(C)C)C3=O)c2)C1=O)C(C)C | < 3.30 | 4.12 | –
O=C(O)CCc1coc2ccc(O)cc12 | – | – | inactive
CCOC(=O)NP(=O)(N1CC1(C)C)N1CC1(C)C (stereo not drawn) | 3.91 | < 3.70 | –
CCC(C)(O)c1cn(-c2ccc(S(=O)(=O)O)cc2)nn1 (stereo not drawn) | < 3.38 | < 3.38 | –
